Results on 32 molecules are retold here after ChEMBL document CHEMBL3425403, “De novo design of caseinolytic protein proteases inhibitors based on pharmacophore and 2D molecular fingerprints” (Bioorg Med Chem Lett, 2015).

The assay relates to Staphylococcus aureus. Put plainly: Inhibition of Staphylococcus aureus caseinolytic protein protease using fluorogenic substrate assessed as residual activity at 10 uM after 15 mins.
Consider `CCCCCCCCCC[C@H]1C(=O)O[C@@H]1CCCCCS(=O)(=O)CCCN(C)C`, for which the Activity amounted to 10%.
For the molecule `CCCCCCCCCC[C@@H]1C(=O)O[C@H]1CCCCCSCCCN(C)C`, the Activity was determined as 1%.
Next, `C#CCCCOC(=O)NCCCCCCCC=C`: 101%; `CCCCCCCCCC[C@H]1C(=O)O[C@@H]1CCCCCS(=O)(=O)CCC[N+](C)(C)C`: 9%; `C=CCCCCCCCCC(=O)OC(C)(C)C`: 103%.
Consider `CCCCCCCCCC[C@@H]1C(=O)O[C@H]1CCCCCS(=O)(=O)CCCN(C)C`, for which the Activity came out at 5%.
Under `O=C1OC[C@H]1CCc1ccccc1` stands 108%; under `CCCCCCCCCC[C@H]1C(=O)O[C@@H]1CCCS(=O)(=O)CCC[N+](C)(C)C`, 7%.
With `C=CCCCCCCC[C@H]1C(=O)O[C@@H]1CCCCCCCCCCCNC(=O)OC(C)(C)C`, the Activity turned out to be 105%.
Take `CCCCCCCCCC[C@@H]1C(=O)O[C@H]1CCCS(=O)(=O)CCC[N+](C)(C)C`: the Activity turned out to be 0%.
As to `CCCCCCCCCC[C@@H]1C(=O)O[C@H]1CCSCCCN(C)C`, the Activity came out at 1%.
Under `O=C1OC[C@@H]1CCc1ccccc1` stands 108%; under `CCCCCCCCCC[C@H]1C(=O)O[C@@H]1CCCCS(=O)(=O)CCCN(C)C`, 13%.
Under `CCCCCCCCCC[C@@H]1C(=O)O[C@H]1CCCS(=O)(=O)CCCN(C)C` stands 0%.
Under `CCCCCCCCCC[C@@H]1C(=O)O[C@H]1CCS(=O)(=O)CCCN(C)C` stands 1%.
`C=CCCCCCCCC[C@H]1OC(=O)[C@@H]1CCCCCCCCCNC(=O)OC(C)(C)C`: the Activity amounted to 95%.
Consider `CCCCCCCCCCCC[C@H]1C(=O)O[C@@H]1CCc1ccccc1`, for which the Activity is 95%.
Under `CCCCCCCCCC[C@H]1C(=O)O[C@@H]1CCS(=O)(=O)CCCN(C)C` stands 37%.
Take `CCCCCCCCCC[C@@H]1C(=O)O[C@H]1CCCCS(=O)(=O)CCCN(C)C`: the Activity stood at 0%.
Next, `CCCCCCCCCC[C@H]1C(=O)O[C@@H]1CCCS(=O)(=O)CCCN(C)C`: 8%; `C=CCCCCCCCCC(=O)OC`: 96%.
For the molecule `CCCCCCCCCC[C@H]1C(=O)O[C@@H]1CCCCS(=O)(=O)CCC[N+](C)(C)C`, the Activity was 9%.
For the molecule `CCCCCCCCCC[C@@H]1C(=O)O[C@H]1CCCCCS(=O)(=O)CCC[N+](C)(C)C`, the Activity was determined as 1%.
Take `C=CCCCCCCC[C@H]1C(=O)O[C@@H]1CCc1cccnc1`: the Activity came out at 0%.
Next, `CCCCCCCCCC[C@@H]1C(=O)O[C@H]1CCCSCCCN(C)C`: 40%.
Next, `C#CCCC[C@@H]1OC(=O)[C@H]1CCCCCCCCCCCC`: 95%; `CCCCCCCCCC[C@@H]1C(=O)O[C@H]1CCCCS(=O)(=O)CCC[N+](C)(C)C`: 36%.
`CCCCCCCCCC[C@H]1C(=O)O[C@@H]1CCSCCCN(C)C`: the Activity worked out at 11%.
Under `C=CCCCCCCC[C@H]1C(=O)O[C@@H]1CCc1ccccc1` stands 70%; under `CCCCCCCCCC[C@@H]1C(=O)O[C@H]1CCCCSCCCN(C)C`, 0%.
For `C=CCCCCCCC[C@H]1C(=O)O[C@@H]1CCCCCNC(=O)c1ccc(N(C)C)cc1`, the Activity turned out to be 30%.
Under `C#CCCCOC(=O)NCCCCC` stands 100%.
